Measurements taken from ChEMBL document CHEMBL3785021, “Isatin analogs as novel inhibitors of Candida spp. β-carbonic anhydrase enzymes” (Bioorg Med Chem, 2016).

Columns and labels:
Carbonic anhydrase 1 = Carbonic anhydrase 1 (Homo sapiens, UniProt P00915); test: Inhibition of recombinant human carbonic anhydrase 1 expressed in Escherichia coli preincubated for 15 mins by stopped-flow CO2 hydration assay
Carbonic anhydrase 2 = Carbonic anhydrase 2 (Homo sapiens, UniProt P00918); test: Inhibition of recombinant human carbonic anhydrase 2 expressed in Escherichia coli preincubated for 15 mins by stopped-flow CO2 hydration assay
Carbonic anhydrase [1] = biological target: T1, Carbonic anhydrase (Candida albicans (strain SC5314 / ATCC MYA-2876) (Yeast), UniProt Q5AJ71); test: Inhibition of recombinant Candida albicans beta carbonic anhydrase NCE103 expressed in Escherichia coli preincubated for 15 mins by stopped-flow CO2 hydration assay
T1 sequence (Q5AJ71 whole entry): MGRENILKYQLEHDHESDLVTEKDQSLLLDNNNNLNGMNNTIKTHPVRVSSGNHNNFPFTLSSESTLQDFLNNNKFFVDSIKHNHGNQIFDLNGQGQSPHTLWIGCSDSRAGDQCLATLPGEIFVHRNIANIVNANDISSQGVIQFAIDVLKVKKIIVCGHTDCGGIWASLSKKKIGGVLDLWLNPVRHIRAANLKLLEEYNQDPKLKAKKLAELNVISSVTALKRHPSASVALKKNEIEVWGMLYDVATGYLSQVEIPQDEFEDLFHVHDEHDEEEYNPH

Carbonic anhydrase [2] = biological target: T2, Carbonic anhydrase (Candida glabrata CBS 138, UniProt Q6FTL6); test: Inhibition of recombinant Candida glabrata beta carbonic anhydrase NCE103 expressed in Escherichia coli preincubated for 15 mins by stopped-flow CO2 hydration assay; set-up: species or system Nakaseomyces glabratus
T2 sequence (Q6FTL6 whole entry): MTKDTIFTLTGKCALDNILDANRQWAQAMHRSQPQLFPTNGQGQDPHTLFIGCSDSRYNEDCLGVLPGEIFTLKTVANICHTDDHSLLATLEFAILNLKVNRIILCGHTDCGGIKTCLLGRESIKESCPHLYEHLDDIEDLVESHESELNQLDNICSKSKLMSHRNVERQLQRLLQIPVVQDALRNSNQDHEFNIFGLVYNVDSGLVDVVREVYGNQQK

Sequence of Carbonic anhydrase 1 (P00915 whole entry): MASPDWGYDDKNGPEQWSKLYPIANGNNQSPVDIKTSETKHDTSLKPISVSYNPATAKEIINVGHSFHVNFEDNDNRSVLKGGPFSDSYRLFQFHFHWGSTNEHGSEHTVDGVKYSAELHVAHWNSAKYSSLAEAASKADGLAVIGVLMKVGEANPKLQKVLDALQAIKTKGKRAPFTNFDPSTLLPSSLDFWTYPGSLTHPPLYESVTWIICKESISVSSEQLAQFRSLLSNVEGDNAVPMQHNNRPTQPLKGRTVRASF

SMILES	Ki (Carbonic anhydrase 1)	Ki (Carbonic anhydrase 2)	Ki (Carbonic anhydrase [1])	Ki (Carbonic anhydrase [2])
NS(=O)(=O)c1ccc(N=C2C(=O)Nc3ccccc32)cc1	422 nM	523 nM	86.5 nM	48.4 nM
Cc1ccc2c(c1)/C(=N/c1cccc(S(N)(=O)=O)c1)C(=O)N2	–	565 nM	157 nM	45.9 nM
NS(=O)(=O)c1ccc(/N=C2\C(=O)Nc3ccc([N+](=O)[O-])cc32)cc1	–	–	34.1 nM	22.8 nM
NS(=O)(=O)c1ccccc1/N=C1\C(=O)Nc2ccccc21	–	–	136 nM	66.5 nM
CN1C(=O)/C(=N\c2ccc(S(N)(=O)=O)cc2)c2ccccc21	–	–	75.9 nM	39.7 nM
CN1C(=O)/C(=N\c2ccc(S(N)(=O)=O)cc2)c2cc([N+](=O)[O-])ccc21	–	–	21.7 nM	16.3 nM
NS(=O)(=O)c1cccc(/N=C2\C(=O)Nc3ccccc32)c1	–	–	98.1 nM	85.1 nM
NS(=O)(=O)c1cccc(/N=C2\C(=O)Nc3ccc(F)cc32)c1	–	–	61.3 nM	45.1 nM
Cc1ccc2c(c1)/C(=N/c1ccc(S(N)(=O)=O)cc1)C(=O)N2C	–	–	84.1 nM	35.3 nM
Cc1ccc2c(c1)/C(=N/c1ccccc1S(N)(=O)=O)C(=O)N2	–	–	139 nM	62.3 nM
CN1C(=O)/C(=N\c2ccc(S(N)(=O)=O)cc2)c2cc(Cl)ccc21	–	–	178 nM	36.5 nM
NS(=O)(=O)c1cccc(/N=C2\C(=O)Nc3ccc([N+](=O)[O-])cc32)c1	–	–	35.7 nM	23.1 nM
CN1C(=O)/C(=N\c2ccc(S(N)(=O)=O)cc2)c2cc(Br)ccc21	–	–	156 nM	37.1 nM
NS(=O)(=O)c1cccc(/N=C2\C(=O)Nc3ccc(OC(F)(F)F)cc32)c1	–	–	88 nM	53.5 nM
NS(=O)(=O)c1ccc(/N=C2\C(=O)Nc3ccc(F)cc32)cc1	–	–	85.2 nM	21.6 nM
NS(=O)(=O)c1ccccc1/N=C1\C(=O)Nc2ccc(Cl)cc21	–	–	65.7 nM	58.9 nM
CN1C(=O)/C(=N\c2ccc(S(N)(=O)=O)cc2)c2cc(F)ccc21	–	–	79.3 nM	32.4 nM
NS(=O)(=O)c1ccccc1/N=C1\C(=O)Nc2ccc(OC(F)(F)F)cc21	–	–	295 nM	154 nM
Cc1ccc2c(c1)/C(=N/c1ccc(S(N)(=O)=O)cc1)C(=O)N2	–	–	128 nM	29.7 nM
NS(=O)(=O)c1ccc(/N=C2\C(=O)Nc3ccc(OC(F)(F)F)cc32)cc1	–	–	53.6 nM	45.1 nM
NS(=O)(=O)c1ccc(/N=C2\C(=O)Nc3ccc(Cl)cc32)cc1	–	–	83.3 nM	38.2 nM
NS(=O)(=O)c1ccccc1/N=C1\C(=O)Nc2ccc(F)cc21	–	–	91.5 nM	55.4 nM
NS(=O)(=O)c1cccc(/N=C2\C(=O)Nc3ccc(Cl)cc32)c1	–	–	54.8 nM	50.1 nM
